Measured values: patent US5204352A, “Compounds exhibiting anti-parasitic activity and a method for their use” (The United States of America as represented by the …, priority 1987, dated 1993)
Values joined by “and” are separate entries in the source; they are usually repeats but may differ in a detail not shown here. Equal values may be shown once.

Test system: Trypanosoma rhodesiense
Test: In vivo trypanocidal activity in infected mice (protocol based on Rane et al.)
Design: Activity at dosage, value in parentheses (increase in survival): unit not given here
Experimental: The compounds of the present invention were evaluated biologically in vivo with groups of 5 mice at various dose levels. Unless otherwise indicated, the data are for subcutaneous administration. Dose levels marked with an asterisk are for peritoneal administration in a HEC+T medium. In addition, Table 2 present results of peritoneal administration with substituted quanylhydrazones. The biological evaluation was done according to a standard protocol based on the method described by Rane et al., Amer. J. Trop. Med Hyg. 25:395 (1976). […]

[1] = 106* mg/kg, peritoneal in HEC+T medium (Table I)
[2] = 424* mg/kg, peritoneal in HEC+T medium (Table I)

Row | SMILES | Increase in survival (53 mg/kg, subcutaneous) | Trypanocidal activity, cures (53 mg/kg, subcutaneous) | Increase in survival (106 mg/kg, subcutaneous) | Trypanocidal activity, cures (212 mg/kg, subcutaneous) | Trypanocidal activity, cures (106 mg/kg, subcutaneous) | Increase in survival (212 mg/kg, subcutaneous) | Increase in survival (424 mg/kg, subcutaneous) | Trypanocidal activity, cures (424 mg/kg, subcutaneous) | also measured
1 | CC(=O)Nc1ccc(-c2cn3ccccc3[n+]2C)cc1 [BJ36718] | 8.0 days | 4/5 | 4.4 days | 3/5 and 4/5 | – | – | – | – | Increase in survival [1]: 7.0 days; Trypanocidal activity, cures [1]: 7/10; Increase in survival [2]: 11.0 days; Trypanocidal activity, cures [2]: 8/10
2 | CC(=O)Nc1ccc(-c2cn3c([n+]2C)CCCC3)cc1 [BJ51911] | 6.4 days | – | 7.4 days | – | 3/10 | – | – | – | Increase in survival (26.5 mg/kg, subcutaneous): 1.2 days; Trypanocidal activity, cures (26.5 mg/kg, subcutaneous): 1/10
3 | C=CC[n+]1c(-c2ccc(NC(C)=O)cc2)cn2ccccc21 [BJ58296] | – | – | – | – | – | – | – | – | Increase in survival (26.5 mg/kg, subcutaneous): 5.0 days; Trypanocidal activity, cures (26.5 mg/kg, subcutaneous): 7/10
4 | CC(=O)Nc1ccc(-c2cn3ccc4ccccc4c3[n+]2C)cc1 [BJ83235] | 1.7 days | 1/5 | – | 4/5 | – | 2.9 days | – | – | –
5 | CC(=O)Nc1ccc(-c2cn3c4ccccc4ccc3[n+]2C)cc1 [BJ83244] | – | – | – | 3/5 | – | 8.4 days | – | – | –
6 | CC(=O)Nc1ccc(-c2cn3cc(I)ccc3[n+]2C)cc1 [BJ83306] | – | – | 2.3 days | 1/5 | 3/10 | 3.9 days | 6.5 days | 4/10 | –
7 | CC(=O)Nc1ccc(-c2cn3ccccc3[n+]2C)cc1 [BJ83315] | – | – | 3.7 days | 3/5 | – | 6.4 days | 2.9 days | 9/10 | –
8 | CC(=O)Nc1ccc(-c2cn3cc(C)ccc3[n+]2C)cc1 [BJ84938] | – | – | 1.3 days | 1/5 | 1/10 | 5.9 days | 8.5 days | 7/10 | –
9 | C[n+]1c(-c2ccc(C(N)=NO)cc2)cn2ccccc21 [BJ84974] | – | 5/5 | 9.9 days | 5/5 | 9/10 | – | – | – | Increase in survival (13.3 mg/kg, subcutaneous): 3.1 days; Increase in survival (26.5 mg/kg, subcutaneous): 1.6 days; Trypanocidal activity, cures (26.5 mg/kg, subcutaneous): 2/10
10 | CC(=O)Nc1ccc(-c2cn3c(C)cc(C)cc3[n+]2C)cc1 [BJ90703] | – | – | 2.9 days | – | 4/5 | – | 9.4 days | 3/5 | Increase in survival (26 mg/kg, subcutaneous): 8.9 days; Trypanocidal activity, cures (26 mg/kg, subcutaneous): 1/5; Increase in survival [2]: 3.4 days; Trypanocidal activity, cures [2]: 1/5
11 | C[n+]1c(-c2ccc(C=NO)cc2)cn2ccccc21 [BJ90712] | – | – | 4.2 days | – | 2/5 | – | – | – | –
12 | C[n+]1c(-c2ccc(C=NNC(N)=S)cc2)cn2ccccc21 [BJ90721] | 7.8 days | 1/5 | 7.5 days | 4/5 | 3/5 | 18.0 days | – | 5/5 | Increase in survival (26 mg/kg, subcutaneous): 4.4 days; Increase in survival [2]: 1.9 days; Trypanocidal activity, cures [2]: 1/10
13 | C[n+]1c(-c2ccc(C=NNC(N)=O)cc2)cn2ccccc21 [BJ90730] | – | – | 10.9 days | – | 4/5 | – | – | – | Increase in survival (26 mg/kg, subcutaneous): 7.7 days; Trypanocidal activity, cures (26 mg/kg, subcutaneous): 1/5; Increase in survival [1]: 1.9 days; Trypanocidal activity, cures [1]: 1/10; Increase in survival [2]: 4.8 days; Trypanocidal activity, cures [2]: 3/10
14 | C[n+]1c(-c2ccc(C=NNC(=N)N)cc2)cn2ccccc21 [BJ90749] | – | – | – | – | – | – | – | – | Increase in survival (0.21 mg/kg, subcutaneous): 2.5 days; Trypanocidal activity, cures (0.21 mg/kg, subcutaneous): 1/5; Increase in survival (0.42 mg/kg, subcutaneous): 5.4 days; Trypanocidal activity, cures (0.42 mg/kg, subcutaneous): 2/10; Increase in survival (0.83 mg/kg, subcutaneous): 6.2 days; Trypanocidal activity, cures (0.83 mg/kg, subcutaneous): 8/10; Trypanocidal activity, cures (1.6 mg/kg, subcutaneous): 10/10; Trypanocidal activity, cures (3.3 mg/kg, subcutaneous): 5/5; Trypanocidal activity, cures (6.6 mg/kg, subcutaneous): 5/5; Activity at dosage, value in parentheses (increase in survival) (13 mg/kg, peritoneal (Table 2)): 4.0; Trypanocidal activity, cures (13.3 mg/kg, subcutaneous): 10/10
15 | COC(=O)c1ccc2n(c1)cc(-c1ccc(NC(C)=O)cc1)[n+]2C [BJ90758] | – | – | 4.2 days | – | – | – | 4.2 days | 2/10 | –
16 | C[n+]1c(-c2ccc(C=NNc3ncn[nH]3)cc2)cn2ccsc21 [BK2403S] | 12.5 days | 3/5 | 7.7 days | 3/5 | 7/10 | 5.0 days | – | – | Increase in survival (6.65 mg/kg, subcutaneous): 5.0 days; Trypanocidal activity, cures (6.65 mg/kg, subcutaneous): 4/5; Increase in survival (13.3 mg/kg, subcutaneous): 5.0 days; Trypanocidal activity, cures (13.3 mg/kg, subcutaneous): 6/10; Increase in survival (26.5 mg/kg, subcutaneous): 7.3 days; Trypanocidal activity, cures (26.5 mg/kg, subcutaneous): 12/15
